What was measured:
Assay in all cases: cell-based
hNav1.3 = hNav1.3 (Homo sapiens, UniProt Q9NY46); details: IonWorks Quattro; read-out: IC50 Nav1.3
hNav1.4 = hNav1.4 (Homo sapiens, UniProt P35499); details: IonWorks Quattro; read-out: IC50 Nav1.4
hNav1.7 = hNav1.7 (Homo sapiens, UniProt Q15858); details: IonWorks Quattro; read-out: IC50 Nav1.7
hNav1.5 = hNav1.5 (Homo sapiens, UniProt Q14524); details: IonWorks Quattro; read-out: IC50 Nav1.5

hNav1.3, sequence (Q9NY46 whole entry): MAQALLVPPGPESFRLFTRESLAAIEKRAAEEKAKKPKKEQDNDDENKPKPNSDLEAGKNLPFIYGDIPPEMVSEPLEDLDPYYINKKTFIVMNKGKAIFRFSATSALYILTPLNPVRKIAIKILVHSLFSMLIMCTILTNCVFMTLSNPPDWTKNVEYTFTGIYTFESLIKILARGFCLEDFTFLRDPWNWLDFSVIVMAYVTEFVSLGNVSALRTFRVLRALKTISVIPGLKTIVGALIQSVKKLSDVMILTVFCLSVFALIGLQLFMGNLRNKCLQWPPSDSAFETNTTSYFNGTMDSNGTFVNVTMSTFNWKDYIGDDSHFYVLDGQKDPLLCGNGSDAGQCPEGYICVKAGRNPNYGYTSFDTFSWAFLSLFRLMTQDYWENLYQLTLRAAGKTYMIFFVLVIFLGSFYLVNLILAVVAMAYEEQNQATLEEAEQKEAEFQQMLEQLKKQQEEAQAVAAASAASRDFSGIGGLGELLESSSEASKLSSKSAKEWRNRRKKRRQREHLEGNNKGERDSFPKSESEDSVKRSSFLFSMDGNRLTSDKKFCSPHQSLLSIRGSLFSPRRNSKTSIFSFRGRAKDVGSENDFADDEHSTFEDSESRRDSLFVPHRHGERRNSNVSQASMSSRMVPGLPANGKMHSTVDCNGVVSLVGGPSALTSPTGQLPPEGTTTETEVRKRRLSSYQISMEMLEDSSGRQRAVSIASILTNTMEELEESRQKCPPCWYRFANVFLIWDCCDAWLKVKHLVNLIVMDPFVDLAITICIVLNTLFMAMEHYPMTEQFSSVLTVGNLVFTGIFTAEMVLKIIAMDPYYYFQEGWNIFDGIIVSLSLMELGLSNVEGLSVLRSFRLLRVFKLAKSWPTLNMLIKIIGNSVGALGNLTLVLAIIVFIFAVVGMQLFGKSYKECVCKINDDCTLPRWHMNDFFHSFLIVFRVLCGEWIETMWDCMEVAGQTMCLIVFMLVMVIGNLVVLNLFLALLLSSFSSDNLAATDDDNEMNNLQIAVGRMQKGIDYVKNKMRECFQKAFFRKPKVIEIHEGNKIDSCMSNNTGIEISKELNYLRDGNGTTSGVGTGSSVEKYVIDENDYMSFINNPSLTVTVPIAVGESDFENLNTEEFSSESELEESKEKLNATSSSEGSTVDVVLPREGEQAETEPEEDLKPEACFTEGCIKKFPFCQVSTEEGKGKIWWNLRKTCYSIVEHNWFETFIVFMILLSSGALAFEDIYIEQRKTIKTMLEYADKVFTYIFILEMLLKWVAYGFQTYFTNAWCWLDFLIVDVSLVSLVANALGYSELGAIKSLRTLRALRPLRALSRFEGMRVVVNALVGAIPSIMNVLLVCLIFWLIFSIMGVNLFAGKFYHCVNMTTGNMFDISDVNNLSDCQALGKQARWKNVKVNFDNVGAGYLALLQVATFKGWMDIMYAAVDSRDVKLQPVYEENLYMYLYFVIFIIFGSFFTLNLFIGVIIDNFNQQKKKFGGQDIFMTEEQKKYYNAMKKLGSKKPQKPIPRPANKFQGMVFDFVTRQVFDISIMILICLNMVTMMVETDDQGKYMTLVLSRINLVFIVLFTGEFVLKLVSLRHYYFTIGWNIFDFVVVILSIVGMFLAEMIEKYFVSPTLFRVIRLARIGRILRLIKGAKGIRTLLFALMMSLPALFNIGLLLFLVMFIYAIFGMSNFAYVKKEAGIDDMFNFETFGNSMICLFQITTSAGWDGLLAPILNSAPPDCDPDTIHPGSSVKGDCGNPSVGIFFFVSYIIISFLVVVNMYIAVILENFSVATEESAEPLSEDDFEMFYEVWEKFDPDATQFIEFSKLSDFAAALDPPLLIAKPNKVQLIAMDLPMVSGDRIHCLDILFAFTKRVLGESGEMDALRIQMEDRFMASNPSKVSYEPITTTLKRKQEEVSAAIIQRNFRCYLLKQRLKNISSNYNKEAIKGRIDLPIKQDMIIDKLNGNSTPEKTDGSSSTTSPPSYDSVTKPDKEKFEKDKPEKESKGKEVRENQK
hNav1.4, sequence (P35499 whole entry): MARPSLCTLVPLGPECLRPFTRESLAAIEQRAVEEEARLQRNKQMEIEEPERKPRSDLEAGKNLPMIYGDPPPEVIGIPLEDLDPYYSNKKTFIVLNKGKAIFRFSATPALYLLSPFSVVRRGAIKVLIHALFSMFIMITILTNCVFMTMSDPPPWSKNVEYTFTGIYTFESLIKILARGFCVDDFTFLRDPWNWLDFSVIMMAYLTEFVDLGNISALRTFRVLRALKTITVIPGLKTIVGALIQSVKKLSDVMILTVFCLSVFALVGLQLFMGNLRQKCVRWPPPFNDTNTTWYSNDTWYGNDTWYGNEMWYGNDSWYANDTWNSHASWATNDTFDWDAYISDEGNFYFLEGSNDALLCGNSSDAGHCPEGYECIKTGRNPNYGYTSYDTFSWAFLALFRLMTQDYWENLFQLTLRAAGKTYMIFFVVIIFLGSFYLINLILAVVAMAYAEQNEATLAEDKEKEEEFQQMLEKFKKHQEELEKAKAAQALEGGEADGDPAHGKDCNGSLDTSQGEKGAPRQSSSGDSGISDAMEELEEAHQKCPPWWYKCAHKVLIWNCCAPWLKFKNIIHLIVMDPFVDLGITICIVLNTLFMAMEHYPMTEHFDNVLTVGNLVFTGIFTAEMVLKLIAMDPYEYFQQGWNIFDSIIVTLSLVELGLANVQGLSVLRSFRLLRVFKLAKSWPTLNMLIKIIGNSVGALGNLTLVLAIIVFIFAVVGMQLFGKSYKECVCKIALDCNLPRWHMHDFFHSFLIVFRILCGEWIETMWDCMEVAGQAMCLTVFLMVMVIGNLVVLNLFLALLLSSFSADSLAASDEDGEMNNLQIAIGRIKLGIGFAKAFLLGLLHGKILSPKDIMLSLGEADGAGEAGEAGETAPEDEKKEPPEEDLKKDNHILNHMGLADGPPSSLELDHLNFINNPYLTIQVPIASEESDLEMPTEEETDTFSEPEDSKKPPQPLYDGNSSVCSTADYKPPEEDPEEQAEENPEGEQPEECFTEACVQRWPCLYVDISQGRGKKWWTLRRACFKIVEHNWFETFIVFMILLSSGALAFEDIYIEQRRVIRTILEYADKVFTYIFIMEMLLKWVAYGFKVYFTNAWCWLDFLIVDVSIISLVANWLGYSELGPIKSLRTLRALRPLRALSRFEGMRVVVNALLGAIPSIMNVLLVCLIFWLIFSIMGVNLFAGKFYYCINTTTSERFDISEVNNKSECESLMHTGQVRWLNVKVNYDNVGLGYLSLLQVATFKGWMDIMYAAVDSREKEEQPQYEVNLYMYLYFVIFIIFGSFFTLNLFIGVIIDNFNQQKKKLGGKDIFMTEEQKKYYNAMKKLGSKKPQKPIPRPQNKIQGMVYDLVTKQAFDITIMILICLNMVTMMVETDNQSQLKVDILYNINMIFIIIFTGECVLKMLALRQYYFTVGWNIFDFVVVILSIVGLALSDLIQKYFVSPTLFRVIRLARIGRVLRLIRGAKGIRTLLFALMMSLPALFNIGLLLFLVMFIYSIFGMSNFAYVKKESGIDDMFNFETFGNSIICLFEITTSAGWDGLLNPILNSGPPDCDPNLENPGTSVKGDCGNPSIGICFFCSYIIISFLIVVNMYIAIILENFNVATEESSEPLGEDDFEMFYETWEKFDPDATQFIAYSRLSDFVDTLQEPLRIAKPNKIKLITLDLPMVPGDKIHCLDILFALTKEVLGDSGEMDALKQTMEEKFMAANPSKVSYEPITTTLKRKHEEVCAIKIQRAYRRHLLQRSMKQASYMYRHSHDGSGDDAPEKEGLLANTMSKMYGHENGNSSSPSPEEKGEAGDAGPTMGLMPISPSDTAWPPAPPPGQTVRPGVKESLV

| SMILES | IC50 (hNav1.3) | IC50 (hNav1.4) | IC50 (hNav1.7) | IC50 (hNav1.5) |
| --- | --- | --- | --- | --- |
| CC[C@H](C)[C@H](NC(=O)[C@H](Cc1ccc(O)cc1)NC(=O)[C@H](CCCCN)NC(=O)[C@H](CCCNC(=N)N)NC(=O)[C@@H]1CSSC[C@@H]2NC(=O)[C@H](C)NC(=O)[C@H](CCCNC(=N)N)NC(=O)[C@H](CCCCN)NC(=O)[C@H](CO)NC(=O)[C@H](CC(=O)O)NC(=O)[C@@H]3CSSC[C@H](NC(=O)[C@H](CCC(=O)O)NC(=O)[C@H](CC(C)C)NC(=O)CNC(=O)[C@H](CCC(=O)O)NC(=O)[C@H](CSSC[C@H](NC(=O)[C@@H](N)Cc4ccc(O)cc4)C(=O)N[C@@H](CCC(N)=O)C(=O)N[C@@H](CCCCN)C(=O)N[C@@H](Cc4c[nH]c5ccccc45)C(=O)N[C@@H](CCSC)C(=O)N[C@@H](Cc4c[nH]c5ccccc45)C(=O)N[C@@H]([C@@H](C)O)C(=O)N3)NC2=O)C(=O)N[C@@H](CCCCN)C(=O)N[C@@H](CC(C)C)C(=O)N[C@@H](CC(C)C)C(=O)N1)C(N)=O [compound 224] | > 5 µM | > 5 µM | > 5 µM | > 5 µM |
| CCCC[C@@H]1NC(=O)[C@H](CC(C)C)NC(=O)[C@H](CCCCN)NC(=O)[C@@H]2CSSC[C@@H]3NC(=O)[C@H]([C@@H](C)O)NC(=O)[C@H](Cc4c[nH]c5ccccc45)NC(=O)[C@H](CCSC)NC(=O)[C@H](Cc4c[nH]c5ccccc45)NC(=O)[C@H](CCCCN)NC(=O)[C@H](CCC(N)=O)NC(=O)[C@@H](NC(=O)[C@@H](N)Cc4ccc(O)cc4)CSSC[C@H](NC(=O)[C@H](CSSC[C@@H](C(=O)N[C@@H](CCCNC(=N)N)C(=O)N[C@@H](CCCCN)C(=O)N[C@@H](Cc4ccc(O)cc4)C(=O)N[C@H](C(N)=O)[C@@H](C)CC)NC1=O)NC(=O)[C@H](C)NC(=O)[C@H](CCCNC(=N)N)NC(=O)[C@H](CCCCN)NC(=O)[C@H](CO)NC(=O)[C@H](CC(=O)O)NC3=O)C(=O)N[C@@H](CCC(=O)O)C(=O)NCC(=O)N[C@@H](CC(C)C)C(=O)N[C@@H](CCC(=O)O)C(=O)N2 [compound 225] | > 5 µM | > 5 µM | > 5 µM | > 5 µM |
| CCC[C@@H]1NC(=O)[C@H](CC(C)C)NC(=O)[C@H](CCCCN)NC(=O)[C@@H]2CSSC[C@@H]3NC(=O)[C@H]([C@@H](C)O)NC(=O)[C@H](Cc4c[nH]c5ccccc45)NC(=O)[C@H](CCSC)NC(=O)[C@H](Cc4c[nH]c5ccccc45)NC(=O)[C@H](CCCCN)NC(=O)[C@H](CCC(N)=O)NC(=O)[C@@H](NC(=O)[C@@H](N)Cc4ccc(O)cc4)CSSC[C@H](NC(=O)[C@H](CSSC[C@@H](C(=O)N[C@@H](CCCNC(=N)N)C(=O)N[C@@H](CCCCN)C(=O)N[C@@H](Cc4ccc(O)cc4)C(=O)N[C@H](C(N)=O)[C@@H](C)CC)NC1=O)NC(=O)[C@H](C)NC(=O)[C@H](CCCNC(=N)N)NC(=O)[C@H](CCCCN)NC(=O)[C@H](CO)NC(=O)[C@H](CC(=O)O)NC3=O)C(=O)N[C@@H](CCC(=O)O)C(=O)NCC(=O)N[C@@H](CC(C)C)C(=O)N[C@@H](CCC(=O)O)C(=O)N2 [compound 226] | > 5 µM | > 5 µM | > 5 µM | > 5 µM |
| CC[C@H](C)[C@H](NC(=O)[C@H](Cc1ccc(O)cc1)NC(=O)[C@H](CCCCN)NC(=O)[C@H](CCCNC(=N)N)NC(=O)[C@@H]1CSSC[C@@H]2NC(=O)[C@H](C)NC(=O)[C@H](CCCNC(=N)N)NC(=O)[C@H](CCCCN)NC(=O)[C@H](CO)NC(=O)[C@H](CC(=O)O)NC(=O)[C@@H]3CSSC[C@H](NC(=O)[C@H](CCC(=O)O)NC(=O)[C@H](CC(C)C)NC(=O)CNC(=O)[C@H](CCC(=O)O)NC(=O)[C@H](CSSC[C@H](NC(=O)[C@@H](N)Cc4ccc(O)cc4)C(=O)N[C@@H](CCC(N)=O)C(=O)N[C@@H](CCCCN)C(=O)N[C@@H](Cc4c[nH]c5ccccc45)C(=O)N[C@@H](CCSC)C(=O)N[C@@H](Cc4c[nH]c5ccccc45)C(=O)N[C@@H]([C@@H](C)O)C(=O)N3)NC2=O)C(=O)N[C@@H](CCCCN)C(=O)N[C@@H](CC(C)C)C(=O)N[C@@H](CCCCN)C(=O)N1)C(N)=O [compound 228] | > 5 µM | > 5 µM | 2.7 µM | > 5 µM |

Reference: patent US9636418B2 (priority 2013, dated 2017)
